Source: patent US7608619B2, “Substituted oxazole compounds with analgesic activity” (Gruenenthal GmbH, priority 2005, dated 2009)

Biological target: T1, human μ-opiate receptor (Homo sapiens, UniProt P35372)
T1 construct: purchased Nen company, Zaventem, Belgium RB-HOM; host or cells: CHO-K1 cells (membrane preparation)
Assay: Affinity for the human μ-opiate receptor ([3H]-naloxone displacement, SPA, CHO-K1 membrane preparation)
Conditions: test substance 1 μmole/l; displacement of 1 nmole/l [3H]-naloxone; percentage inhibition of the specific binding; read-out: μ-opioid receptor, % inhibition [1 μM]
How it was run: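 [3H]-naloxone (1 nmol/l) displacement by SPA with WGA beads, using membranes of CHO-K1 cells expressing the receptor, in 50 mmol/l Tris-HCl with 0.05% azide and 0.06% BSA; 90 min at room temperature. Non-specific binding defined with 25 μmol/l naloxone. Value is % inhibition of specific binding at 1 μmol/l test compound.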

T1 sequence (P35372 whole entry): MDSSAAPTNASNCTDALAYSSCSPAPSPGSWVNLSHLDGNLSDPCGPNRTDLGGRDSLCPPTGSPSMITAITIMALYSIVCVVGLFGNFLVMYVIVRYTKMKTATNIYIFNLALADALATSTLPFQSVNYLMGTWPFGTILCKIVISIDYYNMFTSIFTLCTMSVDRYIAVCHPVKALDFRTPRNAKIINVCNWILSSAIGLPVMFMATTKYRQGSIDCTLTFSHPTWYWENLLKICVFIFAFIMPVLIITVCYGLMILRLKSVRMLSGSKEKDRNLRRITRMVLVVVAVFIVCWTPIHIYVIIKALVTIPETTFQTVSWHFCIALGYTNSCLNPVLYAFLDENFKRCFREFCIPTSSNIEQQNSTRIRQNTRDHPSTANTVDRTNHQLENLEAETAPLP

Row | Compound | inhibition at 1 µM
1 | CCN(CC)C(CC1CCC(C(c2ccc(Cl)cc2)N(C)C)CC1)c1nc(Cc2ccccc2)c(N2CCC(Cc3ccccc3)CC2)o1 (stereo not drawn) [compound 59, (1-[4-benzyl-5-(4-benzylpiperidin-1-yl)-oxazol-2-yl]-2-{4-[(4-chlorophenyl)-dimethylaminomethyl]-cyclohexyl}-ethyl)-diethylamine] | 60%
2 | CCN(CC)C(CC1CCC(C(c2cccs2)N(C)C)CC1)c1nc(Cc2ccccc2)c(N2CCN(Cc3ccccc3)CC2)o1 (stereo not drawn) [compound 78, {1-[4-benzyl-5-(4-benzyl-piperazin-1-yl)-oxazol-2-yl]-2-[4-(dimethylamino-thiophen-2-yl-methyl)-cyclohexyl]-ethyl}-diethylamine] | 100%
3 | CN(C)C(c1ccc(Cl)cc1)C1CCC(CC(c2nc(Cc3ccccc3)c(N3CCN(Cc4ccccc4)CC3)o2)N2CCCCC2)CC1 (stereo not drawn) [compound 56, [(4-{2-[4-benzyl-5-(4-benzyl-piperazin-1-yl)-oxazol-2-yl]-2-piperidin-1-yl-ethyl}-cyclohexyl)-(4-chlorophenyl)-methyl]-dimethylamine] | 62%
4 | CN(C)C(c1cccs1)C1CCC(C(c2nc(Cc3ccccc3)c(N3CCCC3)o2)N2CCOCC2)CC1 (stereo not drawn) [compound 138, ({4-[(4-benzyl-5-pyrrolidin-1-yl-oxazol-2-yl)-morpholin-4-yl-methyl]-cyclohexyl}-thiophen-2-yl-methyl)-dimethylamine] | 91%
5 | CC1CCCN(c2oc(C(C3CCC(C(c4ccc(F)cc4)N(C)C)CC3)N3CCCCC3)nc2Cc2ccccc2)C1 (stereo not drawn) [compound 33, [(4-{[4-benzyl-5-(3-methylpiperidin-1-yl)-oxazol-2-yl]-piperidin-1-yl-methyl}-cyclohexyl)-(4-fluorophenyl)-methyl]-dimethylamine] | 65%
6 | CN(C)C(c1cccs1)C1CCC(CC(c2nc(Cc3ccccc3)c(N3CCOCC3)o2)N2CCOCC2)CC1 (stereo not drawn) [compound 158, ({4-[2-(4-benzyl-5-morpholin-4-yl-oxazol-2-yl)-2-morpholin-4-yl-ethyl]-cyclohexyl}-thiophen-2-yl-methyl)-dimethylamine] | 83%
7 | CN(C)C(c1cccs1)C1CCC(CC(c2nc(Cc3ccccc3)c(N3CCN(Cc4ccccc4)CC3)o2)N2CCCCC2)CC1 (stereo not drawn) [compound 73, [(4-{2-[4-benzyl-5-(4-benzyl-piperazin-1-yl)-oxazol-2-yl]-2-piperidin-1-yl-ethyl}-cyclohexyl)-thiophen-2-yl-methyl]-dimethylamine] | 94%
8 | CCN(CC)C(CC1CCC(C(c2cccs2)N(C)C)CC1)c1nc(Cc2ccccc2)c(N2CCCC(C)C2)o1 (stereo not drawn) [compound 116, {1-[4-benzyl-5-(3-methylpiperidin-1-yl)-oxazol-2-yl]-2-[4-(dimethylamino-thiophen-2-yl-methyl)-cyclohexyl]-ethyl}-diethylamine] | 94%
9 | CC1CN(c2oc(C(C3CCC(C(c4ccc(Cl)cc4)N(C)C)CC3)N3CCOCC3)nc2Cc2ccccc2)CC(C)O1 (stereo not drawn) [compound 132, [(4-{[4-benzyl-5-(2,6-dimethylmorpholin-4-yl)-oxazol-2-yl]-morpholin-4-yl-methyl}-cyclohexyl)-(4-chlorophenyl)-methyl]-dimethylamine] | 64%
10 | CN(CCc1ccccc1)c1oc(C(C2CCC(C(c3cccs3)N(C)C)CC2)N2CCCCC2)nc1Cc1ccccc1 (stereo not drawn) [compound 46, (4-benzyl-2-{[4-(dimethylaminothiophen-2-yl-methyl)-cyclohexyl]-piperidin-1-yl-methyl}-oxazol-5-yl)-methylphenethylamine] | 80%
11 | CC1CN(c2oc(C(CC3CCC(C(c4cccs4)N(C)C)CC3)N3CCOCC3)nc2Cc2ccccc2)CC(C)O1 (stereo not drawn) [compound 160, [(4-{2-[4-benzyl-5-(2,6-dimethyl-morpholin-4-yl)-oxazol-2-yl]-2-morpholin-4-yl-ethyl}-cyclohexyl)-thiophen-2-yl-methyl]-dimethylamine] | 79%
12 | CC1CC(C)CN(c2oc(C(C3CCC(C(c4ccc(F)cc4)N(C)C)CC3)N(C)c3ccccc3)nc2Cc2ccccc2)C1 (stereo not drawn) [compound 37, ([4-benzyl-5-(3,5-dimethylpiperidin-1-yl)-oxazol-2-yl]-{4-[dimethylamino-(4-fluorophenyl)-methyl]-cyclohexyl}-methyl)-methylphenylamine] | 68%
13 | CN(C)C(c1cccc(F)c1)C1CCC(C(c2nc(Cc3ccccc3)c(N3CCCC3)o2)N2CCc3ccccc3C2)CC1 (stereo not drawn) [compound 125, [{4-[(4-benzyl-5-pyrrolidin-1-yl-oxazol-2-yl)-(3,4-dihydro-1H-isoquinolin-2-yl)-methyl]-cyclohexyl}-(3-fluorophenyl)-methyl]-dimethylamine] | 83%
14 | CN(C)C(c1cccs1)C1CCC(C(c2nc(Cc3ccccc3)c(N3CCSCC3)o2)N2CCN(Cc3ccccc3)CC2)CC1 (stereo not drawn) [compound 55, ({4-[(4-benzylpiperazin-1-yl)-(4-benzyl-5-thiomorpholin-4-yl-oxazol-2-yl)-methyl]-cyclohexyl}-thiophen-2-yl-methyl)-dimethylamine] | 63%
15 | COc1ccc(N2CCN(c3oc(C(C4CCC(C(c5cccc(F)c5)N(C)C)CC4)N4CCc5ccccc5C4)nc3Cc3ccccc3)CC2)cc1 (stereo not drawn) [compound 127, [{4-[{4-benzyl-5-[4-(4-methoxy-phenyl)-piperazin-1-yl]-oxazol-2-yl}-(3,4-dihydro-1H-isoquinolin-2-yl)-methyl]-cyclohexyl}-(3-fluorophenyl)-methyl]-dimethylamine] | 73%
16 | COc1ccc(N2CCN(C(c3nc(Cc4ccccc4)c(N4CCCC4)o3)C3CCC(C(c4cccs4)N(C)C)CC3)CC2)cc1 (stereo not drawn) [compound 143, [(4-{(4-benzyl-5-pyrrolidin-1-yl-oxazol-2-yl)-[4-(4-methoxyphenyl)-piperazin-1-yl]-methyl}-cyclohexyl)-thiophen-2-yl-methyl]-dimethylamine] | 77%
17 | CCN(CC)C(c1nc(Cc2ccccc2)c(N2CCC(C)CC2)o1)C1CCC(C(c2cccs2)N(C)C)CC1 (stereo not drawn) [compound 29, {[4-benzyl-5-(4-methylpiperidin-1-yl)-oxazol-2-yl]-[4-(dimethylamino-thiophen-2-yl-methyl)-cyclohexyl]-methyl}-diethylamine] | 95%
18 | CN(C)C(c1ccc(F)cc1)C1CCC(C(c2nc(Cc3ccccc3)c(N3CCCC3)o2)N2CCCCC2)CC1 (stereo not drawn) [compound 17, [{4-[(4-benzyl-5-pyrrolidin-1-yl-oxazol-2-yl)-piperidin-1-yl-methyl]-cyclohexyl}-(4-fluorophenyl)-methyl]-dimethylamine] | 76%
19 | CC1CCCN(c2oc(C(CC3CCC(C(c4cccs4)N(C)C)CC3)N3CCCCC3)nc2Cc2ccccc2)C1 (stereo not drawn) [compound 111, [(4-{2-[4-benzyl-5-(3-methylpiperidin-1-yl)-oxazol-2-yl]-2-piperidin-1-yl-ethyl}-cyclohexyl)-thiophen-2-yl-methyl]-dimethylamine] | 92%
20 | CN(C)C(c1cccs1)C1CCC(C(c2nc(Cc3ccccc3)c(N3CCCC3)o2)N2CCc3ccccc3C2)CC1 (stereo not drawn) [compound 146, ({4-[(4-benzyl-5-pyrrolidin-1-yl-oxazol-2-yl)-(3,4-dihydro-1H-isoquinolin-2-yl)-methyl]-cyclohexyl}-thiophen-2-yl-methyl)-dimethylamine] | 92%
21 | CCN(CC)C(c1nc(Cc2ccccc2)c(N2CCC(C)CC2)o1)C1CCC(C(c2ccc(Cl)cc2)N(C)C)CC1 (stereo not drawn) [compound 20, ([4-benzyl-5-(4-methylpiperidin-1-yl)-oxazol-2-yl]-{4-[(4-chlorophenyl)-dimethylaminomethyl]-cyclohexyl}-methyl)-diethylamine] | 63%
22 | CN(C)C(c1cccs1)C1CCC(CC(c2nc(Cc3ccccc3)c(N3CCC(Cc4ccccc4)CC3)o2)N2CCCCC2)CC1 (stereo not drawn) [compound 72, [(4-{2-[4-benzyl-5-(4-benzyl-piperidin-1-yl)-oxazol-2-yl]-2-piperidin-1-yl-ethyl}-cyclohexyl)-thiophen-2-yl-methyl]-dimethylamine] | 69%
23 | CN(C)C(c1cccc(F)c1)C1CCC(C(c2nc(Cc3ccccc3)c(N3CCOCC3)o2)N2CCc3ccccc3C2)CC1 (stereo not drawn) [compound 126, [{4-[(4-benzyl-5-morpholin-4-yl-oxazol-2-yl)-(3,4-dihydro-1H-isoquinolin-2-yl)-methyl]-cyclohexyl}-(3-fluorophenyl)-methyl]-dimethylamine] | 76%
24 | CCN(CC)c1oc(C(C2CCC(C(c3cccs3)N(C)C)CC2)N2CCCCC2)nc1Cc1ccccc1 (stereo not drawn) [compound 47, (4-benzyl-2-{[4-(dimethylamino-thiophen-2-yl-methyl)-cyclohexyl]-piperidin-1-yl-methyl}-oxazol-5-yl)-diethylamine] | 73%
25 | COc1ccc(N2CCN(C(CC3CCC(C(c4cccc(F)c4)N(C)C)CC3)c3nc(Cc4ccccc4)c(N4CCOCC4)o3)CC2)cc1 (stereo not drawn) [compound 154, [(4-{2-(4-benzyl-5-morpholin-4-yl-oxazol-2-yl)-2-[4-(4-methoxy-phenyl)-piperazin-1-yl]-ethyl}-cyclohexyl)-(3-fluorophenyl)-methyl]-dimethylamine] | 86%
26 | CN(C)C(c1cccs1)C1CCC(C(c2nc(Cc3ccccc3)c(N3CCC(Cc4ccccc4)CC3)o2)N2CCCCC2)CC1 (stereo not drawn) [compound 23, [(4-{[4-benzyl-5-(4-benzyl-piperidin-1-yl)-oxazol-2-yl]-piperidin-1-yl-methyl}-cyclohexyl)-thiophen-2-yl-methyl]-dimethylamine] | 70%
27 | CN(C)C(c1cccs1)C1CCC(CC(c2nc(Cc3ccccc3)c(N3CCSCC3)o2)N2CCN(Cc3ccccc3)CC2)CC1 (stereo not drawn) [compound 118, ({4-[2-(4-benzylpiperazin-1-yl)-2-(4-benzyl-5-thiomorpholin-4-yl-oxazol-2-yl)-ethyl]-cyclohexyl}-thiophen-2-yl-methyl)-dimethylamine] | 84%
